Source: patent publication US8841233B2, “Herbicidal compositions comprising 4-amino-3-chloro-5-fluoro-6-(4-chloro-2-fluoro-3-methoxyphenyl) pyridine-2-carboxylic acid or a derivative thereof and 4-hydroxyphenyl-pyruvate dioxygenase (HPPD) inhibitors” (Dow Agrosciences LLC, priority 2012, dated 2014)

Test system: ECHCO
Assay: Post-emergence foliar-applied weed control, greenhouse (Example I)
Assay type: in vivo, Echinochloa colona (L.) Link
Excerpt: Evaluation of Post-emergence Foliar-Applied Herbicidal Mixtures for Weed Control in Direct Seeded Rice
Seeds or nutlets of the desired test plant species were planted in a soil matrix prepared by mixing a loam or sandy loam soil (e.g., 28.6 percent silt, 18.8 percent clay, and 52.6 percent sand, with a pH of about 5.8 and an organic matter content of about 1.8 percent) and calcareous grit in an 80 to 20 ratio. The soil matrix was contained in plastic pots with a volume of 1 quart and a surface area of 83.6 square centimeters (cm^2). When required to ensure good germination and healthy plants, a fungicide treatment and/or other chemical or physical treatment was applied. The plants were grown for 8-22 days in a greenhouse with an approximate 14 h photoperiod which was maintained at about 29° C. during the day and 26° C. during the night. Nutrients (Peters Excel® 15-5-15 5-Ca 2-Mg and iron chelate) were applied in the irrigation solution as needed and water was added on a regular basis. Supplemental lighting was provided with overhead metal halide 1000-Watt lamps as necessary. The plants were employed for testing when they reached the first through fourth true leaf stage.
Treatments consisted of the acid or esters of 4-amino-3-chloro-5-fluoro-6-(4-chloro-2-fluoro-3-methoxy-phenyl)pyridine-2-carboxylic acid (Compound A), each formulated as an SC (suspension concentrate), and various herbicidal components alone and in combination. Forms of Compound A were applied on an acid equivalent basis.
Other herbicidal components were applied on an active ingredient basis and included 4-hydroxyphenyl pyruvate dioxygenase (HPPD)-inhibiting herbicides mesotrione formulated as Callisto®, sulcotrione formulated as Mikado®, pyrazolynate formulated as Sunbird® 10% GR, and benzobicyclon formulated as Benzobicyclon 3.5%.
Treatment requirements were calculated based upon the rates being tested, the concentration of active ingredient or acid equivalent in the formulation, and a 12 mL application volume at a rate of 187 L/ha.
For treatments comprised of formulated compounds, measured amounts of compounds were placed individually in 25 mL glass vials and diluted in a volume of 1.25% (v/v) Agri-Dex® crop oil concentrated to obtain 12× stock solutions. […] Application solutions were prepared by adding an appropriate amount of each stock solution (e.g., 1 mL) and diluted to the appropriate final concentrations with the addition of 10 mL of an aqueous mixture of 1.25% (v/v) crop oil concentrate so that the final spray solutions contained 1.25+/−0.05% (v/v) crop oil concentrate.
For treatments comprised of formulated and technical compounds, weighed amounts of the technical materials were placed individually in 25 mL glass vials and dissolved in a volume of 97:3 v/v acetone/DMSO to obtain 12× stock solutions, and measured amounts of the formulated compounds were placed individually in 25 mL glass vials and diluted in a volume of 1.5% (v/v) crop oil concentrate or water to obtain 12× stock solutions. […] Application solutions were prepared by adding an appropriate amount of each stock solution (e.g., 1 mL) and diluted to the appropriate final concentrations with the addition of an appropriate amount of an aqueous mixture of 1.5% (v/v) crop oil concentrate so that the final spray solutions contained 1.25% (v/v) crop oil concentrate. As required, additional water and/or 97:3 v/v acetone/DMSO was added to individual application solutions so that the final acetone and DMSO concentrations of the application solutions being compared were 8.1% and 0.25%, respectively.
All stock solutions and applications solutions were visually inspected for compound compatibility prior to application. Spray solutions were applied to the plant material with an overhead Mandel track sprayer equipped with a 8002E nozzles calibrated to deliver 187 L/ha over an application area of 0.503 m^2 at a spray height of 18 to 20 inches (46 to 50 cm) above average plant canopy height. […]

Row | SMILES | Visual Weed Control (%) - 20 DAA ECHCO Obs (4.38 gae/ha) | Visual Weed Control (%) - 22 DAA ECHCO Obs (4.38 gae/ha) | Visual Weed Control (%) - 22 DAA ECHCO Obs (8.75 gae/ha) | Visual Weed Control (%) - 22 DAA ECHCO Obs (5.3 gae/ha) | Visual Weed Control (%) - 20 DAA ECHCO Obs (8.75 gae/ha) | Visual Weed Control (%) - 22 DAA ECHCO Obs (10.6 gae/ha) | Visual Weed Control (%) - 20 DAA ECHCO Obs (17.5 gae/ha)
1 | COc1c(Cl)ccc(-c2nc(C(=O)OCc3ccccc3)c(Cl)c(N)c2F)c1F [Compound A Benzyl Ester, benzyl ester of 4-amino-3-chloro-5-fluoro-6-(4-chloro-2-fluoro-3-methoxy-phenyl)pyridine-2-carboxylic acid] | 40% | 30% | 55% | – | – | – | –
2 | COc1c(Cl)ccc(-c2nc(C(=O)O)c(Cl)c(N)c2F)c1F [Compound A Acid, 4-amino-3-chloro-6-(4-chloro-2-fluoro-3-methoxyphenyl)-5-fluoropyridine-2-carboxylic acid] | 40% | – | – | 65% | 60% | 65% | 85%
